Patent US11401277B2, “Anti-bacterial heterocyclic compounds and their synthesis” (Bugworks Research, Inc., priority 2017, dated 2022)
pIC50: −log10 of the molar value. Converted amounts (≈) assume the structure as drawn. “And” between values parts separate entries of the source, which are not always exact repeats. Identical values can stand only once.

What was measured:
E. coli [ATCC25922] = experiment: Neutropenic Thigh Infection Model in Rat, E. coli; format: in vivo; details: 10 mg/kg, i.v. bolus
[1] = system: K. pneumoniae [ATCC13883]; experiment: Neutropenic Thigh Infection Model in Rat, K. pneumoniae; format: in vivo; details: 10 mg/kg, i.v. bolus
[2] = system: Enterobacter cloacae ATCC 13047; experiment: MIC studies in LB Media; format: cell-based; details: ATCC13047, read-out: Minimum Inhibitory Concentration in LB Media, E. cl
Description: (§1) Bacterial cultures that were stored as glycerol stocks at −80° C. were sub cultured on LB agar plates to obtain isolated colonies. A single colony of each strain was cultured in LB broth. The cultures were incubated at 37° C., 200 rpm till they reach an optical density (OD at 600 nm) of 0.8 to 1. […] Test compounds were dissolved in dimethyl sulfoxide (DMSO) to a stock concentration of 4 mg/ml. A two-fold dilution series of this DMSO stock was prepared in a 96 well V bottom microtitre plate from rows A to H. A 3 μL volume of these dilutions were transferred to a 96-well flat bottom microtitre assay plate. Controls to monitor the effects of DMSO and media sterility were included. Each well was inoculated with 150 μL of the above diluted culture. The plates were incubated at 37° C. overnight in a humidified incubator. The following morning, the plates were read using a Spectrophotometer at 600 nm wavelength.

[3] = system: Morganella morganii ATCC 25830; experiment: MIC studies in LB Media; format: cell-based; details: ATCC25830, read-out: Minimum Inhibitory Concentration in LB Media, M. mo
Description: as §1

E. coli ATCC 25922 = experiment: MIC studies in LB Media; format: cell-based; details: Escherichia coli, ATCC25922, read-out: Minimum Inhibitory Concentration in LB Media, E. co
Description: as §1

E. faecalis ATCC 29212 = experiment: MIC studies in LB Media; format: cell-based; details: Enterococcus faecalis, ATCC29212, read-out: Minimum Inhibitory Concentration in LB Media, E. fa
Description: as §1

[4] = system: Citrobacter freundii ATCC 43864; experiment: MIC studies in LB Media; format: cell-based; details: ATCC43864, read-out: Minimum Inhibitory Concentration in LB Media, C. fr
Description: as §1

A. baumannii ATCC 19606 = experiment: MIC studies in LB Media; format: cell-based; details: Acinetobacter baumannii, ATCC19606, read-out: Minimum Inhibitory Concentration in LB Media, A. ba
Description: as §1

S. aureus ATCC 29213 = experiment: MIC studies in LB Media; format: cell-based; details: Staphylococcus aureus, ATCC29213, MIC = 90% inhibition of growth, read-out: Minimum Inhibitory Concentration in LB Media, S. au
Description: as §1

[5] = system: Proteus mirabilis ATCC 43071; experiment: MIC studies in LB Media; format: cell-based; details: ATCC43071, read-out: Minimum Inhibitory Concentration in LB Media, P. mi
Description: as §1

P. aurigenosa ATCC 27853 = experiment: MIC studies in LB Media; format: cell-based; details: Pseudomonas aeruginosa, ATCC27853, read-out: Minimum Inhibitory Concentration in LB Media, P. ae
Description: as §1

K. pneumoniae ATCC 13883 = experiment: MIC studies in LB Media; format: cell-based; details: Klebsiella pneumoniae, ATCC13883, read-out: Minimum Inhibitory Concentration in LB Media, K. pn
Description: as §1

hERG potassium channel = target: T1, hERG potassium channel (Homo sapiens, UniProt Q12809); experiment: hERG inhibition assay, QPatch HTX automated electrophysiology; format: cell-based; details: CHO cell line expressing hERG; whole-cell patch clamp, room temperature
T1 construct: Chinese Hamster Ovary cell line stably expressing the full-length hERG potassium channel; expressed in transfected cells
Description: The compounds were tested for inhibition of the human ether a go-go related gene (hERG) K+ channel using QPatch HTX automated electrophysiology.
Compounds of Formula I were solubilised to 100 mM in DMSO before dilution in HBPS to 300 μM.
Electrophysiological recordings were made from a Chinese Hamster Ovary cell line stably expressing the full-length hERG potassium channel. Single cell ionic currents were measured in whole-cell patch clamp configuration at room temperature (21-23° C.) using the QPatch HTX platform (Sophion). Intracellular solution contained (mM): 120 KF, 20 KCl, 10 EGTA, 10 HEPES and was buffered to pH 7.3. […] Cells were clamped at a holding potential of −80 mV. Cells were stepped to +20 mV for 2 s then −40 mV for 3 s before returning to the holding potential. This sweep was repeated 10 times at 10 s intervals. hERG currents were measured from the tail step and referenced to the holding current. Compounds were then incubated for 2 minutes prior to a second measurement of ion channel current using an identical pulse train.

E. coli DNA gyrase = E. coli DNA gyrase (Escherichia coli, UniProt P0AES4+P0AES6); experiment: biochemical; details: gel based supercoiling assay; read-out: E. coli DNA Gyrase IC50
E. coli topoisomerase IV = E. coli topoisomerase IV (Escherichia coli, UniProt P0AFI2+P20083); experiment: biochemical; details: gel based decatenation assay; read-out: E. coli Topo IV IC50
[6] = individual animals, 10 hr post infection

E. coli topoisomerase IV, sequence (P20083 whole entry): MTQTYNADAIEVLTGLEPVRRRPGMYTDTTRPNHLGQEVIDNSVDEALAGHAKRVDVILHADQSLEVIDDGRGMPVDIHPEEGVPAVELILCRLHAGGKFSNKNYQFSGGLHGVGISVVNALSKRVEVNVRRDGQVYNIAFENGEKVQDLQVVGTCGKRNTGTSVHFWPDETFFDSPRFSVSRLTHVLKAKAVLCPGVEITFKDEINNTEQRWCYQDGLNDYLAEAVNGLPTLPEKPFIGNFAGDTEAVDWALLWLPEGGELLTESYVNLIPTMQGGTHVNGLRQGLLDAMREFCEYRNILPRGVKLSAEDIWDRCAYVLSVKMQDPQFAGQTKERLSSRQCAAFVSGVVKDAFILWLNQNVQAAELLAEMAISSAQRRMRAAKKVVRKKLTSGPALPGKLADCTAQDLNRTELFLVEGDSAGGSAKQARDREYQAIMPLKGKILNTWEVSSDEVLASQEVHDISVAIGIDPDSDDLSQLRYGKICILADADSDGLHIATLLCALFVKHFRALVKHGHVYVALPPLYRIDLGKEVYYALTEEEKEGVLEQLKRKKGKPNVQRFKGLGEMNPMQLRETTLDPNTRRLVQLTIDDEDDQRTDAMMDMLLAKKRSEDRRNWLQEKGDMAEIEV
E. coli topoisomerase IV, sequence (P0AFI2 whole entry): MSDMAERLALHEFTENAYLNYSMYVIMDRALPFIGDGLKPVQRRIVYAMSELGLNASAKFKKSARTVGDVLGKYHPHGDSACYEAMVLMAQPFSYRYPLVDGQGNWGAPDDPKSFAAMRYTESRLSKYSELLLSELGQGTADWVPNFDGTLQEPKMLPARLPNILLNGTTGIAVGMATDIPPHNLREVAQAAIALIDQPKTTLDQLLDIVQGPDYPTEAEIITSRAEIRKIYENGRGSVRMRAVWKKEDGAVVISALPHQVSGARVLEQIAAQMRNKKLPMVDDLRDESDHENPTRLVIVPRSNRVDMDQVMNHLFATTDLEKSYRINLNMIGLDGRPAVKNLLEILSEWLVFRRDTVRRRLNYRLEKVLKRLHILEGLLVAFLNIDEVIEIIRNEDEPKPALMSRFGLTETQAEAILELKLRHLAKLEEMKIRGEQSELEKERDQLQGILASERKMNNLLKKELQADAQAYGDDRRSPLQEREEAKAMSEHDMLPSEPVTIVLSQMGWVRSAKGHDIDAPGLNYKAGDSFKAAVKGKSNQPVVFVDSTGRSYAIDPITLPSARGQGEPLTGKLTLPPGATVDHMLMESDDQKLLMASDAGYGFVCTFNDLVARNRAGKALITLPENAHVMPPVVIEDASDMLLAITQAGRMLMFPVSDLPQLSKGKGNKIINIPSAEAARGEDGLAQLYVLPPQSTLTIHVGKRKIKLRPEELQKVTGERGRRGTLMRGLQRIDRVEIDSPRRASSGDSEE
T1 sequence (Q12809 whole entry): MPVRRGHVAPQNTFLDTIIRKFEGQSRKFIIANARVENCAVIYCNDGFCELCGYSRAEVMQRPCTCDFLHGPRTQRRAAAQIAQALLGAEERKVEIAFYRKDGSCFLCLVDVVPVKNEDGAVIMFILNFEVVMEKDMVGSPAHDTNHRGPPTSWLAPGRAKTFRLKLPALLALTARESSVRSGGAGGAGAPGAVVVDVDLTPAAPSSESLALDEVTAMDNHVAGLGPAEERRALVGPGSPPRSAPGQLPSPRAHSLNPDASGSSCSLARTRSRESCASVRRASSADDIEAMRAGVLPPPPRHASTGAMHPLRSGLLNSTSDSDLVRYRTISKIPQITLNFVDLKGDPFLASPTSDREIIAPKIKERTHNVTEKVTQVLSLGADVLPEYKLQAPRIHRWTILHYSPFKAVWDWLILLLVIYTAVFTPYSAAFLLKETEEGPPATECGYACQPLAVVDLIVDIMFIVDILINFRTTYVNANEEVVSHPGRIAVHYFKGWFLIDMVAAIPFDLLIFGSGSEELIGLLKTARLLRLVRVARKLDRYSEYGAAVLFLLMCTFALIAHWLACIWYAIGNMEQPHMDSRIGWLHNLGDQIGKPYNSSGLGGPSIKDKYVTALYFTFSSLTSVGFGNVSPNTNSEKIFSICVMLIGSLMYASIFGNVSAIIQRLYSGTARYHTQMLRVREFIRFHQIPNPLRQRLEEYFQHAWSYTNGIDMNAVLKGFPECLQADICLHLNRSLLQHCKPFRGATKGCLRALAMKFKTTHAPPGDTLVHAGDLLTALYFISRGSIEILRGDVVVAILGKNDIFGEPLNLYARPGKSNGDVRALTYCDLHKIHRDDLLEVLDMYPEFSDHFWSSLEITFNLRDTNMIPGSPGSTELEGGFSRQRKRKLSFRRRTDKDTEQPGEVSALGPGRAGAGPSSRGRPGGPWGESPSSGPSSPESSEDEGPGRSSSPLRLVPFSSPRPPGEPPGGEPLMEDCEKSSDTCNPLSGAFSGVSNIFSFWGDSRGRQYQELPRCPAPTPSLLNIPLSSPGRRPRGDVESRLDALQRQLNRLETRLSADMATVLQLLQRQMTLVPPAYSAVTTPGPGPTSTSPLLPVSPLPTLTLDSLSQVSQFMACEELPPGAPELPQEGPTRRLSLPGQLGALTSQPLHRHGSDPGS
E. coli DNA gyrase, sequence (P0AES4 whole entry, one chain of several): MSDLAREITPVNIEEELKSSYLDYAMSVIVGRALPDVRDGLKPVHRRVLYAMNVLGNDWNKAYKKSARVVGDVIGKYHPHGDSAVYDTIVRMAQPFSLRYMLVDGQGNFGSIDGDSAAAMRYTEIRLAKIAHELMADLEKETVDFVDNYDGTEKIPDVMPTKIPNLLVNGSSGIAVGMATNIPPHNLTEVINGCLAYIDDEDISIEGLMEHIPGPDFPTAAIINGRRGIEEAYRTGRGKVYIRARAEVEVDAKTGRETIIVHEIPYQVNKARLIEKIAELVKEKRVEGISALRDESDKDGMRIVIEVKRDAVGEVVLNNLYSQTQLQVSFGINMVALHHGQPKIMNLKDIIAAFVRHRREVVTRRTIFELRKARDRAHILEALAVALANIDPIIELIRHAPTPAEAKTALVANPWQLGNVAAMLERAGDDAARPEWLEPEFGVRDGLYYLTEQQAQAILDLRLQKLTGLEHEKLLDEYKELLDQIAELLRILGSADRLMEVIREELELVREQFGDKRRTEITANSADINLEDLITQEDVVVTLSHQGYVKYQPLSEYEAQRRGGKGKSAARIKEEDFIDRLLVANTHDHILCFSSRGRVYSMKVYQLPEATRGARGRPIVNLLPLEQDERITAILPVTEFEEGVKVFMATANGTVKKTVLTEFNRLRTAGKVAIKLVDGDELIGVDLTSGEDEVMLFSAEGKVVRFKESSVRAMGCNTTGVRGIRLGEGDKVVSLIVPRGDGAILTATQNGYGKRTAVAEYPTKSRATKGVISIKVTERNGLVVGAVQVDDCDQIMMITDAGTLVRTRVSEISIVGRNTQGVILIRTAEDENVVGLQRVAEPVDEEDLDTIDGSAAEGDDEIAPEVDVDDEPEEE

Compound	Mean Log 10 CFU/thigh reduction (wrt 2 h PI control: 5.04 Log10CFU/g thigh) (E. coli [ATCC25922]) [Log 10 CFU/thigh]	MEAN ± SD (Log10 CFU/g thigh) (E. coli [ATCC25922]; 10 hr post infection)	Log10 CFU/g thigh (E. coli [ATCC25922]; [6])	MEAN ± SD (Log10 CFU/g thigh) [1] [Log10 CFU/g thigh]	Mean Log 10 CFU/thigh reduction (wrt 2 h PI control: 5.04 Log10CFU/g thigh) [1] [Log 10 CFU/thigh]	Log10 CFU/g thigh [1, 6]	MIC [2] [µg/mL]	MIC [3] [µg/mL]	MIC (E. coli ATCC 25922) [µg/mL]	MIC (E. faecalis ATCC 29212) [µg/mL]	MIC [4] [µg/mL]	MIC (A. baumannii ATCC 19606) [µg/mL]	MIC (S. aureus ATCC 29213) [µg/mL]	MIC [5] [µg/mL]	MIC (P. aurigenosa ATCC 27853) [µg/mL]	MIC (K. pneumoniae ATCC 13883) [µg/mL]	pIC50 (hERG potassium channel)	pIC50 (E. coli DNA gyrase)	pIC50 (E. coli topoisomerase IV)
O=C(O)c1cn(C2CC2)c2cc(N3CCNCC3)c(F)cc2c1=O [Ciprofloxacin, ciprofloxacin, reference compound]	2.12	3.73 ± 0.21	3.74 Log10 CFU/g thigh and 3.94 Log10 CFU/g thigh and 3.52 Log10 CFU/g thigh	3.30 ± 0.11	1.74	3.22 Log10 CFU/g thigh and 3.25 Log10 CFU/g thigh and 3.42 Log10 CFU/g thigh	–	–	–	–	–	–	–	–	–	–	–	–	–
Cn1c(=O)ccc2nccc(OCCNC[C@H]3CN(c4ccc5c(n4)NC(=O)CO5)C(=O)O3)c21 [Compound 1, (S)-6-(5-(((2-((5-methyl-6-oxo-5,6-dihydro-1,5-naphthyridin-4-yl)oxy)ethyl)amino)methyl)-2-oxooxazolidin-3-yl)-2H-pyrido[3,2-b][1,4]oxazin-3(4H)-one]	–	–	–	–	–	–	8 (≈ 17.2 µM)	2 (≈ 4.29 µM)	0.5 (≈ 1.07 µM)	1 (≈ 2.14 µM)	1 (≈ 2.14 µM)	2 (≈ 4.29 µM)	0.25 (≈ 0.536 µM)	16 (≈ 34.3 µM)	4 (≈ 8.58 µM)	1 (≈ 2.14 µM)	< 4.00	> 6.60	> 6.60
Cn1c(=O)ccc2ccc(F)c(OCCNC[C@@H]3CN(c4cnc5c(n4)NC(=O)CO5)C(=O)O3)c21 [Compound 3, (R)-6-(5-(((2-((7-fluoro-1-methyl-2-oxo-1,2-dihydroquinolin-8-yl)oxy)ethyl)amino)methyl)-2-oxooxazolidin-3-yl)-2H-pyrazino[2,3-b][1,4]oxazin-3(4H)-one]	–	–	–	–	–	–	0.125 (≈ 0.258 µM)	0.03 (≈ 0.0619 µM)	0.06 (≈ 0.124 µM)	0.06 (≈ 0.124 µM)	0.06 (≈ 0.124 µM)	0.06 (≈ 0.124 µM)	0.015 (≈ 0.031 µM)	0.125 (≈ 0.258 µM)	0.5 (≈ 1.03 µM)	0.06 (≈ 0.124 µM)	4.60	7.96	–
CC(COc1c(F)ccc2ccc(=O)n(C)c12)NC[C@H]1CN(c2cnc3c(n2)NC(=O)CO3)C(=O)O1 (stereo partly drawn) [Compound 4, 6-((5S)-5-(((1-((7-fluoro-1-methyl-2-oxo-1,2-dihydroquinolin-8-yl)oxy)propan-2-yl)amino)methyl)-2-oxooxazolidin-3-yl)-2H-pyrazino[2,3-b][1,4]oxazin-3(4H)-one]	–	–	–	–	–	–	0.5 (≈ 1 µM)	1 (≈ 2.01 µM)	0.25 (≈ 0.502 µM)	0.125 (≈ 0.251 µM)	0.5 (≈ 1 µM)	0.25 (≈ 0.502 µM)	0.06 (≈ 0.12 µM)	2 (≈ 4.01 µM)	2 (≈ 4.01 µM)	0.25 (≈ 0.502 µM)	4.44	7.52	> 6.46
Cc1cc(=O)n(C)c2c(OCCNC[C@H]3CN(c4cnc5c(n4)NC(=O)CO5)C(=O)O3)c(F)ccc12 [Compound 5, (S)-6-(5-(((2-((7-fluoro-1,4-dimethyl-2-oxo-1,2-dihydroquinolin-8-yl)oxy)ethyl)amino)methyl)-2-oxooxazolidin-3-yl)-2H-pyrazino[2,3-b][1,4]oxazin-3(4H)-one]	–	–	–	–	–	–	–	–	0.06 (≈ 0.12 µM)	0.125 (≈ 0.251 µM)	–	0.25 (≈ 0.502 µM)	0.125 (≈ 0.251 µM)	–	1 (≈ 2.01 µM)	0.25 (≈ 0.502 µM)	4.15	7.48	> 6.73
Cn1c(=O)ccc2ncc(Cl)c(OCCNC[C@H]3CN(c4cnc5c(n4)NC(=O)CO5)C(=O)O3)c21 [Compound 6, (S)-6-(5-(((2-((3-chloro-5-methyl-6-oxo-5,6-dihydro-1,5-naphthyridin-4-yl)oxy)ethyl)amino)methyl)-2-oxooxazolidin-3-yl)-2H-pyrazino[2,3-b][1,4]oxazin-3(4H)-one]	–	–	–	–	–	–	> 4	> 4	> 4	> 4	> 4	> 4	> 4	> 4	> 4	> 4	–	5.20	4.75
Cn1c(=O)cnc2ccc(F)c(OCCNC[C@H]3CN(c4cnc5c(n4)NC(=O)CO5)C(=O)O3)c21 [Compound 7, (S)-6-(5-(((2-((6-fluoro-4-methyl-3-oxo-3,4-dihydroquinoxalin-5-yl)oxy)ethyl)amino)methyl)-2-oxooxazolidin-3-yl)-2H-pyrazino[2,3-b][1,4]oxazin-3(4H)-one]	–	–	–	–	–	–	0.125 (≈ 0.258 µM)	0.06 (≈ 0.124 µM)	0.03 (≈ 0.0618 µM)	0.06 (≈ 0.124 µM)	0.06 (≈ 0.124 µM)	0.06 (≈ 0.124 µM)	≤ 0.015	0.25 (≈ 0.515 µM)	0.25 (≈ 0.515 µM)	0.06 (≈ 0.124 µM)	< 3.52	7.82	> 6.66
Cn1c(=O)cnc2ccc(F)c(OCCNC[C@@H]3CN(c4cnc5c(n4)NC(=O)CO5)C(=O)O3)c21 [Compound 8, (R)-6-(5-(((2-((6-fluoro-4-methyl-3-oxo-3,4-dihydroquinoxalin-5-yl)oxy)ethyl)amino)methyl)-2-oxooxazolidin-3-yl)-2H-pyrazino[2,3-b][1,4]oxazin-3(4H)-one]	–	–	–	–	–	–	0.125 (≈ 0.258 µM)	0.03 (≈ 0.0618 µM)	0.03 (≈ 0.0618 µM)	0.06 (≈ 0.124 µM)	0.06 (≈ 0.124 µM)	0.06 (≈ 0.124 µM)	≤ 0.015	0.25 (≈ 0.515 µM)	0.5 (≈ 1.03 µM)	0.06 (≈ 0.124 µM)	4.24	–	–
Cc1nc2ccc(F)c(OCCNC[C@H]3CN(c4cnc5c(n4)NC(=O)CO5)C(=O)O3)c2n(C)c1=O [Compound 9, (S)-6-(5-(((2-((6-fluoro-2,4-dimethyl-3-oxo-3,4-dihydroquinoxalin-5-yl)oxy)ethyl)amino)methyl)-2-oxooxazolidin-3-yl)-2H-pyrazino[2,3-b][1,4]oxazin-3(4H)-one]	–	–	–	–	–	–	1 (≈ 2 µM)	0.5 (≈ 1 µM)	0.125 (≈ 0.25 µM)	0.25 (≈ 0.501 µM)	0.25 (≈ 0.501 µM)	0.125 (≈ 0.25 µM)	≤ 0.06	2 (≈ 4 µM)	4 (≈ 8.01 µM)	0.5 (≈ 1 µM)	–	7.40	–
Cn1c(=O)cnc2ccc(F)c(OCCNC[C@H]3CN(c4cnc5c(n4)NC(=O)CS5)C(=O)O3)c21 [Compound 10, (S)-5-(((2-((6-fluoro-4-methyl-3-oxo-3,4-dihydroquinoxalin-5-yl)oxy)ethyl)amino)methyl)-3-(3-oxo-3,4-dihydro-2H-pyrazino[2,3-b][1,4]thiazin-6-yl)oxazolidin-2-one]	–	–	–	–	–	–	0.05 (≈ 0.0997 µM)	0.025 (≈ 0.0499 µM)	0.025 (≈ 0.0499 µM)	0.025 (≈ 0.0499 µM)	0.025 (≈ 0.0499 µM)	0.013 (≈ 0.0259 µM)	≤ 0.003	0.125 (≈ 0.249 µM)	0.25 (≈ 0.499 µM)	0.025 (≈ 0.0499 µM)	4.72	7.66	> 6.43
